These results are taken from patent US12679843B2, “Pyrrolopyrimidine amines as complement inhibitors” (BioCryst Pharmaceuticals, Inc., priority 2020, dated 2026).

The structures appear in SMILES notation.

One may read the IC50 as the concentration that inhibits the measured activity by half.

This experiment deals with Factor D (Homo sapiens, UniProt P00746). Nature of the experiment: Factor D esterolytic assay (Z-Lys-SBzl thioester substrate, DTNB, 405 nm). It counts as biochemical. To be noted: substrate Z-Lys-SBzl 1.29 mM, 100 mM HEPES, 500 mM NaCl, pH 7.5, 10% DMSO, tested a minimum of three times. An outline of the steps: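 Human Factor D hydrolysis of Z-Lys-SBzl (1.29 mM) monitored at 405 nm via DTNB thiol detection for 600 s, 690 nm background subtracted. Buffer 100 mM HEPES, 500 mM NaCl, pH 7.5, 10% DMSO; substrate added immediately or after room-temperature preincubation. IC50 from percent inhibition of rate, at least three tests.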
Sequence of Factor D (P00746 26-253): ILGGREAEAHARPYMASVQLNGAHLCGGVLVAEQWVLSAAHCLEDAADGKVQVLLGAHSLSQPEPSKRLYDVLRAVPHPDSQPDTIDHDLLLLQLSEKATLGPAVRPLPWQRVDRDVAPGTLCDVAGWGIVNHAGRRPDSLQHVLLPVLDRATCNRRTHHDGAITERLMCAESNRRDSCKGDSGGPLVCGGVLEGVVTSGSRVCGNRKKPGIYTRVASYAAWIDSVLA
Regarding `Nc1ncnc2c1c1cc(-c3ccccc3)ccc1n2CC(=O)N1[C@@H]2C[C@@H]2C[C@H]1C(=O)Nc1cccc(Br)n1` [Compound 62c, (1R,3S,5R)-2-(2-(4-amino-6-phenyl-9H-pyrimido[4,5-b]indol-9-yl)acetyl)-N-(6-bromopyridin-2-yl)-2-azabicyclo[3.1.0]hexane-3-carboxamide], the IC50 was below 100 nM.

With `Cc1cn(CC(=O)N2C[C@H](F)C[C@H]2C(=O)NCc2cccc(Cl)c2F)c2ncnc(N)c12` [Compound 150d, (2S,4R)-1-(2-(4-amino-5-methyl-7H-pyrrolo[2,3-d]pyrimidin-7-yl)acetyl)-N-(3-chloro-2-fluorobenzyl)-4-fluoropyrrolidine-2-carboxamide], the IC50 lay in the range of 100 to 1000 nM.

As for `Nc1ncnc2c1c1cc(O)ccc1n2CC(=O)N1[C@@H]2C[C@@H]2C[C@H]1C(=O)Nc1cccc(Br)n1` [Compound 166a, (1R,3S,5R)-2-(2-(4-amino-6-hydroxy-9H-pyrimido[4,5-b]indol-9-yl)acetyl)-N-(6-bromopyridin-2-yl)-2-azabicyclo[3.1.0]hexane-3-carboxamide], the IC50 is below 100 nM.

Turning to `COc1cc2c(cc1Br)c1c(N)ncnc1n2CC(=O)N1[C@H](C(=O)Nc2cccc(Br)n2)C[C@@]2(C)C[C@@H]12` [Compound 375a, (1R,3S,5R)-2-(2-(4-amino-6-bromo-7-methoxy-9H-pyrimido[4,5-b]indol-9-yl)acetyl)-N-(6-bromopyridin-2-yl)-5-methyl-2-azabicyclo[3.1.0]hexane-3-carboxamide], the IC50 is below 100 nM.

As for `C[C@@]12C[C@@H](C(=O)Nc3cccc(Br)n3)N(C(=O)Cn3c4ncnc(N)c4c4cccc(C(F)(F)F)c43)[C@@H]1C2` [Compound 175a, (1R,3S,5R)-2-(2-(4-amino-8-(trifluoromethyl)-9H-pyrimido[4,5-b]indol-9-yl)acetyl)-N-(6-bromopyridin-2-yl)-5-methyl-2-azabicyclo[3.1.0]hexane-3-carboxamide], the IC50 is above 1000 nM.

Turning to `Cc1ccc(Br)nc1NC(=O)[C@@H]1C[C@@](C)(F)CN1C(=O)Cn1c2ncnc(N)c2c2cc(C(F)(F)F)cc(C)c21` [Compound 323a, (2S,4R)-1-(2-(4-amino-8-methyl-6-(trifluoromethyl)-9H-pyrimido[4,5-b]indol-9-yl)acetyl)-N-(6-bromo-3-methylpyridin-2-yl)-4-fluoro-4-methylpyrrolidine-2-carboxamide], the IC50 was below 100 nM.

As for `N#Cc1ccc(CNC(=O)[C@@H]2CCCN2C(=O)Cn2c3ccccc3c3c(N)ncnc32)cc1` [Compound 250b, (S)-1-(2-(4-amino-9H-pyrimido[4,5-b]indol-9-yl)acetyl)-N-(4-cyanobenzyl)pyrrolidine-2-carboxamide], the IC50 was above 1000 nM.

For the compound `COC(=O)c1cccc2c3c(N)ncnc3n(CC(=O)N3[C@@H]4C[C@@H]4C[C@H]3C(=O)Nc3cccc(Br)n3)c12` [Compound 47g, methyl 4-amino-9-(2-((1R,3S,5R)-3-((6-bromopyridin-2-yl)carbamoyl)-2-azabicyclo[3.1.0]hexan-2-yl)-2-oxoethyl)-9H-pyrimido[4,5-b]indole-8-carboxylate], the IC50 was below 100 nM.

Regarding `Cc1ccc(-c2cc(C)c3c(c2)c2c(N)ncnc2n3CC(=O)N2[C@H](C(=O)Nc3cccc(Br)n3)C[C@@]3(C)C[C@@H]23)cc1` [Compound 255c, (1R,3S,5R)-2-(2-(4-amino-8-methyl-6-(p-tolyl)-9H-pyrimido[4,5-b]indol-9-yl)acetyl)-N-(6-bromopyridin-2-yl)-5-methyl-2-azabicyclo[3.1.0]hexane-3-carboxamide], the IC50 was below 100 nM.

With `Nc1ccnc2c1ccn2CC(=O)N1[C@@H]2C[C@@H]2C[C@H]1C(=O)Nc1cccc(Br)n1` [Compound 83d, (1R,3S,5R)-2-(2-(4-amino-1H-pyrrolo[2,3-b]pyridin-1-yl)acetyl)-N-(6-bromopyridin-2-yl)-2-azabicyclo[3.1.0]hexane-3-carboxamide], the IC50 was 100 to 1000 nM.

In the case of `Cc1ccc(Cl)nc1NC(=O)[C@@H]1C[C@H]2C[C@H]2N1C(=O)Cn1c2ncnc(N)c2c2cc(C(F)(F)F)cc(C)c21` [Compound 318c, (1R,3S,5R)-2-(2-(4-amino-8-methyl-6-(trifluoromethyl)-9H-pyrimido[4,5-b]indol-9-yl)acetyl)-N-(6-chloro-3-methylpyridin-2-yl)-2-azabicyclo[3.1.0]hexane-3-carboxamide], the IC50 is below 100 nM.

In the case of `Nc1ncnc2c1c1cc(C(=O)NCC3CC3)ccc1n2CC(=O)N1[C@@H]2C[C@@H]2C[C@H]1C(=O)Nc1cccc(Br)n1` [Compound 169f, 4-amino-9-(2-((1R,3S,5R)-3-((6-bromopyridin-2-yl)carbamoyl)-2-azabicyclo[3.1.0]hexan-2-yl)-2-oxoethyl)-N-(cyclopropylmethyl)-9H-pyrimido[4,5-b]indole-6-carboxamide], the IC50 is below 100 nM.

Regarding `C[C@@]12C[C@@H](C(=O)Nc3cccc(Br)n3)N(C(=O)Cn3c4ncnc(N)c4c4cccc(F)c43)[C@@H]1C2` [Compound 198a, (1R,3S,5R)-2-(2-(4-amino-8-fluoro-9H-pyrimido[4,5-b]indol-9-yl)acetyl)-N-(6-bromopyridin-2-yl)-5-methyl-2-azabicyclo[3.1.0]hexane-3-carboxamide], the IC50 was below 100 nM.

In the case of `Cc1ccc2c(c1)c1c(N)ncnc1n2CC(=O)N1C[C@H](F)C[C@H]1C(=O)Nc1cccc(Br)n1` [Compound 21a, (2S,4R)-1-(2-(4-amino-6-methyl-9H-pyrimido[4,5-b]indol-9-yl)acetyl)-N-(6-bromopyridin-2-yl)-4-fluoropyrrolidine-2-carboxamide], the IC50 was below 100 nM.

Consider `CC(O)c1ccc2c(c1)c1c(N)ncnc1n2CC(=O)N1[C@@H]2C[C@@H]2C[C@H]1C(=O)Nc1cccc(Br)n1` (stereo partly drawn) [Compound 170c, (1R,3S,5R)-2-(2-(4-amino-6-(1-hydroxyethyl)-9H-pyrimido[4,5-b]indol-9-yl)acetyl)-N-(6-bromopyridin-2-yl)-2-azabicyclo[3.1.0]hexane-3-carboxamide], for which the IC50 was below 100 nM.

Turning to `COC(=O)c1ccc2c(c1)c1c(N)ncnc1n2CC(=O)N1[C@H](C(=O)Nc2cccc(Br)n2)C[C@@]2(C)C[C@@H]12` [Compound 40a, methyl 4-amino-9-(2-((1R,3S,5R)-3-((6-bromopyridin-2-yl)carbamoyl)-5-methyl-2-azabicyclo[3.1.0]hexan-2-yl)-2-oxoethyl)-9H-pyrimido[4,5-b]indole-6-carboxylate], the IC50 was below 100 nM.

With `COc1ccc2c(c1)c1c(N)ncnc1n2CC(=O)N1[C@@H]2C[C@@H]2C[C@H]1C(=O)Nc1cccc(Br)n1` [Compound 38e, (1R,3S,5R)-2-(2-(4-amino-6-methoxy-9H-pyrimido[4,5-b]indol-9-yl)acetyl)-N-(6-bromopyridin-2-yl)-2-azabicyclo[3.1.0]hexane-3-carboxamide], the IC50 is below 100 nM.

In the case of `Cc1ccc2c(c1)c1c(N)ncnc1n2C(C)C(=O)N1[C@@H]2C[C@@H]2C[C@H]1C(=O)Nc1cccc(Br)n1` (single isomer, unassigned) [Compound 22d], the IC50 was above 1000 nM.

Turning to `Nc1ncnc2c1ncn2CC(=O)N1[C@@H]2C[C@@H]2C[C@H]1C(=O)OCc1ccccc1` [Compound 94b, (1R,3S,5R)-benzyl 2-(2-(6-amino-9H-purin-9-yl)acetyl)-2-azabicyclo[3.1.0]hexane-3-carboxylate], the concentration for half-maximal inhibition (IC50) is above 1000 nM.

`Cc1ncc(-c2cc(C)c3c(c2)c2c(N)ncnc2n3CC(=O)N2C[C@](C)(F)C[C@H]2C(=O)Nc2cccc(Cl)n2)cn1` [Compound 343a, (2S,4R)-1-(2-(4-amino-8-methyl-6-(2-methylpyrimidin-5-yl)-9H-pyrimido[4,5-b]indol-9-yl)acetyl)-N-(6-chloropyridin-2-yl)-4-fluoro-4-methylpyrrolidine-2-carboxamide]: the 50% inhibitory concentration (IC50) was below 100 nM.

Consider `COc1cc2c3c(N)ncnc3n(CC(=O)N3[C@H](C(=O)Nc4cccc(Br)n4)C[C@@]4(C)C[C@@H]34)c2cc1OC` [Compound 277a, (1R,3S,5R)-2-(2-(4-amino-6,7-dimethoxy-9H-pyrimido[4,5-b]indol-9-yl)acetyl)-N-(6-bromopyridin-2-yl)-5-methyl-2-azabicyclo[3.1.0]hexane-3-carboxamide], for which the IC50 is below 100 nM.

Take `CNC(=O)c1ccc2c(c1)c1c(N)ncnc1n2CC(=O)N1[C@H](C(=O)Nc2cccc(Br)n2)C[C@@]2(C)C[C@@H]12` [Compound 196d, 4-amino-9-(2-((1R,3S,5R)-3-((6-bromopyridin-2-yl)carbamoyl)-5-methyl-2-azabicyclo[3.1.0]hexan-2-yl)-2-oxoethyl)-N-methyl-9H-pyrimido[4,5-b]indole-6-carboxamide]: the IC50 is below 100 nM.

For the compound `COc1cc(F)cc2c3c(N)ncnc3n(CC(=O)N3[C@@H]4C[C@@H]4C[C@H]3C(=O)Nc3cccc(Br)n3)c12` [Compound 280g, (1R,3S,5R)-2-(2-(4-amino-6-fluoro-8-methoxy-9H-pyrimido[4,5-b]indol-9-yl)acetyl)-N-(6-bromopyridin-2-yl)-2-azabicyclo[3.1.0]hexane-3-carboxamide], the IC50 was below 100 nM.

As to `Cc1cc(C)c2c(c1)c1c(N)ncnc1n2CC(=O)N1[C@@H]2C[C@@H]2C[C@H]1C(=O)Nc1cccc(Br)n1` [Compound 189g, (1R,3S,5R)-2-(2-(4-amino-6,8-dimethyl-9H-pyrimido[4,5-b]indol-9-yl)acetyl)-N-(6-bromopyridin-2-yl)-2-azabicyclo[3.1.0]hexane-3-carboxamide], the IC50 is below 100 nM.

With `CC1CC(CNC(=O)[C@@H]2C[C@H]3C[C@H]3N2C(=O)Cn2cnc3c(N)ncnc32)C1` (stereo partly drawn) [Compound 100b, (1R,3S,5R)-2-(2-(6-amino-9H-purin-9-yl)acetyl)-N-((3-methylcyclobutyl)methyl)-2-azabicyclo[3.1.0]hexane-3-carboxamide], the IC50 was above 1000 nM.
